Here are results for one compound from PMC11842024, “Reversible male contraception by targeted inhibition of serine/threonine kinase 33” (Science (New York, N.Y.), 2024).

The test system of one series is male mice. The series is described as follows: Histological analysis of testis and epididymis. It counts as in vivo. The text has this:
fig. S24. Histological analysis of testis and epididymis segments (caput & corpus) from control and CDD-2807-treated male mice from protocol 1. Bouin’s fixed, 4 µm-cross sections of the testis (A) and horizontal sections of the epididymis (B) were stained with PAS-hematoxylin.
All 12 stages of spermatogenesis are represented in both control and CDD-2807-treated mice and show normal tissue morphology and acrosome development. Epididymis from the control and CDD-2807-treated mice were similar histologically. Scale bars are 60 µm.
(1 picture or pasted object on this page, not shown here) […]
fig. S25. Histological analysis of testis and epididymis segments (caput & corpus) from control and CDD-2807-treated male mice from protocol 2. Bouin’s fixed, 4 µm-cross sections of the testis (A) and longitudinal sections of the epididymis (B) were stained with PAS-hematoxylin. All 12 stages of spermatogenesis are represented in both control and CDD-2807-treated mice, although it was difficult to find all stages in the CDD-2807-treated mice. Epididymis from the control and CDD-2807-treated mice were very different histologically, control mice had normal sperm cells, while CDD-2807 mice had occasional round spermatids present in the epididymis. Scale bars are 60 µm.

A further series deals with T1, NTRK1 (Homo sapiens, UniProt P04629).
T1 construct: against 192 full-length protein kinases in human embryonic kidney 293 (HEK293) cells; host or cells: HEK293
The series is described as follows: NanoBRET K192 assay (Promega). As to conditions: HEK293 cells. It counts as cell-based. How it is done: (§1) NanoBRET Target Engagement K192 assay. HEK293 cells (ATCC) were cultured in DMEM (Gibco) + 10% FBS (Seradigm) and incubated in a humidified 37°C/5% CO2 incubator. The NanoBRET Target Engagement K192 Kinase Selectivity System (Promega) contains 192 unique transfection-ready NanoLuc/Kinase fusions, pre-diluted in either transfection carrier DNA or relevant cyclin DNA. These NanoLuc/Kinase fusion constructs were transfected into HEK293 cells using Fugene HD (Promega) according to the manufacturer’s protocol. Briefly, 10 µL of a 20 µg/mL DNA solution was added to white, TC-treated 96-well assay plates (Corning), followed by 30 µL of a diluted Fugene HD solution (20 µL Fugene/1 mL Opti-MEM). After transfection complex formation, HEK293 cells were resuspended at 3.3 × 105 c/mL in Opti-MEM + 1% FBS and added at a volume of 60 µL per well, to result in approximately 20000 cells/well. Cells were incubated in a humidified 37°C/5% CO2 incubator for 20 hours. Tracer K-10 (Promega) was prepared at a 100× concentration in DMSO (Sigma) and diluted to a working concentration of 10× in tracer dilution buffer (12.5 mM HEPES, 31.25% PEG400, pH 7.5) (Promega). Test compounds were prepared as concentrated stock solutions in DMSO and diluted in Opti-MEM to prepare 10× working stocks. Cells were equilibrated with test compounds and Tracer K-10 for 2 hours prior to BRET measurements. For target engagement analysis, Tracer K-10 was added to cells at one of 4 […]
(§2) manufacturer’s protocol. To measure BRET, NanoBRET NanoGlo Substrate and Extracellular NanoLuc Inhibitor (Promega) were added according to the manufacturer’s protocol, and filtered luminescence was measured on a GloMax Discover luminometer equipped with 450 nm BP filter (donor) and 600 nm LP filter (acceptor), using 0.5 s integration time. Milli-BRET units are calculated by multiplying the raw BRET units by 1000.
(§3) For Fractional Occupancy determination, the following equation was used:
(§4) % Occupancy = [1-(X-Z)/(Y-Z)]×100
(§5) Where X = BRET in the presence of the test compound and Tracer K10, Y = BRET in the presence of Tracer K10 only, and Z = Full occupancy, or BRET in the absence of the test compound and […]
(§6) Tracer K10. […]
For orientation: In BRET a luciferase serves as donor, and the signal depends on an acceptor being close.

The next series addresses T2, PTK2B (Homo sapiens, UniProt Q14289).
T2 construct: against 192 full-length protein kinases in human embryonic kidney 293 (HEK293) cells; host or cells: HEK293
The series is described as follows: NanoBRET K192 assay (Promega). It counts as cell-based. Conditions: HEK293 cells. How it is done:
as §1, §2, §3, §4, §5, §6

A further series addresses T3, PTK2 (Homo sapiens, UniProt Q05397).
T3 construct: against 192 full-length protein kinases in human embryonic kidney 293 (HEK293) cells; host or cells: HEK293
The series is described as follows: NanoBRET K192 assay (Promega). Conditions: HEK293 cells. It counts as cell-based. How it is done:
as §1, §2, §3, §4, §5, §6

The target in the next series is T4, GAK (Homo sapiens, UniProt O14976).
T4 construct: against 192 full-length protein kinases in human embryonic kidney 293 (HEK293) cells; host or cells: HEK293
The series is described as follows: NanoBRET K192 assay (Promega). It counts as cell-based. Conditions: HEK293 cells. How it is done:
as §1, §2, §3, §4, §5, §6

The target in the next series is T5, FLT3 (Homo sapiens, UniProt P36888).
T5 construct: against 192 full-length protein kinases in human embryonic kidney 293 (HEK293) cells; host or cells: HEK293
The series is described as follows: NanoBRET K192 assay (Promega). It counts as cell-based. Conditions: HEK293 cells. How it is done: as §1, §2, §3, §4, §5, §6

A further series deals with T6, CSNK1G2 (Homo sapiens, UniProt P78368).
T6 construct: against 192 full-length protein kinases in human embryonic kidney 293 (HEK293) cells; host or cells: HEK293
The series is described as follows: NanoBRET K192 assay (Promega). It counts as cell-based. As to conditions: HEK293 cells. The protocol: as §1, §2, §3, §4, §5, §6

The next series concerns the target T7, EPHA1 (Homo sapiens, UniProt P21709).
T7 construct: against 192 full-length protein kinases in human embryonic kidney 293 (HEK293) cells; host or cells: HEK293
The series is described as follows: NanoBRET K192 assay (Promega). It counts as cell-based. As to conditions: HEK293 cells. The protocol:
as §1, §2, §3, §4, §5, §6

The next series concerns the target T8, PHKG1 (Homo sapiens, UniProt Q16816).
T8 construct: against 192 full-length protein kinases in human embryonic kidney 293 (HEK293) cells; host or cells: HEK293
The series is described as follows: NanoBRET K192 assay (Promega). It counts as cell-based. Conditions: HEK293 cells. How it is done: as §1, §2, §3, §4, §5, §6

Another series concerns the target T9, MAP4K2 (Homo sapiens, UniProt Q12851).
T9 construct: against 192 full-length protein kinases in human embryonic kidney 293 (HEK293) cells; host or cells: HEK293
The series is described as follows: NanoBRET K192 assay (Promega). It counts as cell-based. Conditions: HEK293 cells. How it is done: as §1, §2, §3, §4, §5, §6

For another series, the target named is T10, STK4 (Homo sapiens, UniProt Q13043).
T10 construct: against 192 full-length protein kinases in human embryonic kidney 293 (HEK293) cells; host or cells: HEK293
The series is described as follows: NanoBRET K192 assay (Promega). It counts as cell-based. As to conditions: HEK293 cells. How it is done: as §1, §2, §3, §4, §5, §6

The target in the next series is T11, NTRK2 (Homo sapiens, UniProt Q16620).
T11 construct: against 192 full-length protein kinases in human embryonic kidney 293 (HEK293) cells; host or cells: HEK293
The series is described as follows: NanoBRET K192 assay (Promega). It counts as cell-based. As to conditions: HEK293 cells. The protocol:
as §1, §2, §3, §4, §5, §6

A further series has as its target T12, AAK1 (Homo sapiens, UniProt Q2M2I8).
T12 construct: against 192 full-length protein kinases in human embryonic kidney 293 (HEK293) cells; host or cells: HEK293
The series is described as follows: NanoBRET K192 assay (Promega). It counts as cell-based. As to conditions: HEK293 cells. The protocol:
as §1, §2, §3, §4, §5, §6

In another series the target is T13, PHKG2 (Homo sapiens, UniProt P15735).
T13 construct: against 192 full-length protein kinases in human embryonic kidney 293 (HEK293) cells; host or cells: HEK293
The series is described as follows: NanoBRET K192 assay (Promega). It counts as cell-based. As to conditions: HEK293 cells. The protocol: as §1, §2, §3, §4, §5, §6

In another series the target is T14, FER (Homo sapiens, UniProt P16591).
T14 construct: against 192 full-length protein kinases in human embryonic kidney 293 (HEK293) cells; host or cells: HEK293
The series is described as follows: NanoBRET K192 assay (Promega). It counts as cell-based. Conditions: HEK293 cells. How it is done:
as §1, §2, §3, §4, §5, §6

In another series the target is T15, BMP2K (Homo sapiens, UniProt Q9NSY1).
T15 construct: against 192 full-length protein kinases in human embryonic kidney 293 (HEK293) cells; host or cells: HEK293
The series is described as follows: NanoBRET K192 assay (Promega). It counts as cell-based. Conditions: HEK293 cells. How it is done: as §1, §2, §3, §4, §5, §6

The next series addresses CLK4 (Homo sapiens, UniProt Q9HAZ1). The series is described as follows: LanthaScreen binding assay (ThermoFisher SelectScreen). Set-up: purchased SelectScreen Services (ThermoFisher). The source says: In vitro biochemical assays. Several small molecule assays were outsourced to SelectScreen Services (ThermoFisher) for STK33 and for off-target kinases (data sets are available on demand).
These assays are LanthaScreen (binding assay) and Z’-LYTE (activity assay). Dose-responses were done with at least 5 different concentrations in duplicates, and parameters were optimized by calculations described below and provided with standard errors.
Calculation of Kd values for kinase inhibitors that bind to the ATP pocket of a kinase from LanthaScreen binding data. DynaFit (71) was used to fit complex equilibria where a tracer is displaced by a dilution series of a kinase inhibitor. This method relies on the concentration of inhibitor, as well as the concentration of kinase and tracer, and Kd of the tracer. The latter three parameters are tabulated by ThermoFisher for each kinase in the LanthaScreen assay panel. […]
For orientation: TR-FRET usually uses a lanthanide donor and a delayed reading to cut background.

In general, Kd refers to the constant that tells how readily two partners part at equilibrium. Low readings indicate higher affinity, high ones lower affinity.

T8 sequence (Q16816 whole entry): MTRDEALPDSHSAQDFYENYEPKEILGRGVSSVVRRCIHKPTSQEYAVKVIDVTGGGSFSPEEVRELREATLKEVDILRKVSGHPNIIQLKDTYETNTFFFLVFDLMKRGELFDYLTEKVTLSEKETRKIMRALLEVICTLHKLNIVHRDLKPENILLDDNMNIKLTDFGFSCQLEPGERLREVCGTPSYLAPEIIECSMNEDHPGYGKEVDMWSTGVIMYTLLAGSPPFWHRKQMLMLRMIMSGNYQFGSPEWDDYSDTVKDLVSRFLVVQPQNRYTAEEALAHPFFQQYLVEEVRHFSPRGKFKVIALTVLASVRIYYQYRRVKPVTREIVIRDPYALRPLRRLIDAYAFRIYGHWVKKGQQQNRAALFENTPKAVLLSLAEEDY
T6 sequence (P78368 whole entry): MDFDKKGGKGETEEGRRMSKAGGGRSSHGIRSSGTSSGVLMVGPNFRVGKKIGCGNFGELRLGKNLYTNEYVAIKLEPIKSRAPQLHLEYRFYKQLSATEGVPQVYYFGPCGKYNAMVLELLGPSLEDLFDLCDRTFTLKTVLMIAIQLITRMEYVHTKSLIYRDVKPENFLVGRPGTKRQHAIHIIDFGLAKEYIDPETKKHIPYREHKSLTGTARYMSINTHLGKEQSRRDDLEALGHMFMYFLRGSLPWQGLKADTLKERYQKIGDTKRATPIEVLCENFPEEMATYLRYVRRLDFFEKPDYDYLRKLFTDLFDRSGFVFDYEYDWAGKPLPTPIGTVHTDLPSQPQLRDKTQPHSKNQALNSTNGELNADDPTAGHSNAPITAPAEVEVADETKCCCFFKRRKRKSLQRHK
T12 sequence (Q2M2I8 whole entry): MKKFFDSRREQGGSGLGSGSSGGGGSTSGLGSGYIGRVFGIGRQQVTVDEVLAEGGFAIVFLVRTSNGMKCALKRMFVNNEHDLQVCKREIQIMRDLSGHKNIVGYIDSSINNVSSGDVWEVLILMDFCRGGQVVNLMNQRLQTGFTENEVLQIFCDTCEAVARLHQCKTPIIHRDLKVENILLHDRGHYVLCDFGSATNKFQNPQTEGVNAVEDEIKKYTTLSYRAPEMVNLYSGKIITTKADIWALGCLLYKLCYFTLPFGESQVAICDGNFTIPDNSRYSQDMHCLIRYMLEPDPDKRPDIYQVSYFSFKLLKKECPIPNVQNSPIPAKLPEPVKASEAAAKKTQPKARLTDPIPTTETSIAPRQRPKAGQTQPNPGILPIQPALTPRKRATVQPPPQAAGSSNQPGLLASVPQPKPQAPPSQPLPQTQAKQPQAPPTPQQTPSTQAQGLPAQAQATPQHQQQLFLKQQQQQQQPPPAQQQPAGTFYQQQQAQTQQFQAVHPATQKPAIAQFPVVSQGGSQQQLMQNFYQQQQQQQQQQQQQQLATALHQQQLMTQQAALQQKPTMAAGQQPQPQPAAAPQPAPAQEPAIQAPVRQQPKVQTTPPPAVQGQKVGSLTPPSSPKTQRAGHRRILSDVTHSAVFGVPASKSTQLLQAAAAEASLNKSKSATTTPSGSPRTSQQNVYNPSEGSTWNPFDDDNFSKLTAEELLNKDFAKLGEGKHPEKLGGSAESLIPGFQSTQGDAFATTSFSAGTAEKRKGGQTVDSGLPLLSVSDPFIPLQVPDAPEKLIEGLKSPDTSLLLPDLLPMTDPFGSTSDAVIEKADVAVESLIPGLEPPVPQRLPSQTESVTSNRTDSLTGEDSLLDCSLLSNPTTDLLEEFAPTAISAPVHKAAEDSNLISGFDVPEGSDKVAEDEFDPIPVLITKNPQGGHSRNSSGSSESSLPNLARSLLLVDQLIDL
T9 sequence (Q12851 whole entry): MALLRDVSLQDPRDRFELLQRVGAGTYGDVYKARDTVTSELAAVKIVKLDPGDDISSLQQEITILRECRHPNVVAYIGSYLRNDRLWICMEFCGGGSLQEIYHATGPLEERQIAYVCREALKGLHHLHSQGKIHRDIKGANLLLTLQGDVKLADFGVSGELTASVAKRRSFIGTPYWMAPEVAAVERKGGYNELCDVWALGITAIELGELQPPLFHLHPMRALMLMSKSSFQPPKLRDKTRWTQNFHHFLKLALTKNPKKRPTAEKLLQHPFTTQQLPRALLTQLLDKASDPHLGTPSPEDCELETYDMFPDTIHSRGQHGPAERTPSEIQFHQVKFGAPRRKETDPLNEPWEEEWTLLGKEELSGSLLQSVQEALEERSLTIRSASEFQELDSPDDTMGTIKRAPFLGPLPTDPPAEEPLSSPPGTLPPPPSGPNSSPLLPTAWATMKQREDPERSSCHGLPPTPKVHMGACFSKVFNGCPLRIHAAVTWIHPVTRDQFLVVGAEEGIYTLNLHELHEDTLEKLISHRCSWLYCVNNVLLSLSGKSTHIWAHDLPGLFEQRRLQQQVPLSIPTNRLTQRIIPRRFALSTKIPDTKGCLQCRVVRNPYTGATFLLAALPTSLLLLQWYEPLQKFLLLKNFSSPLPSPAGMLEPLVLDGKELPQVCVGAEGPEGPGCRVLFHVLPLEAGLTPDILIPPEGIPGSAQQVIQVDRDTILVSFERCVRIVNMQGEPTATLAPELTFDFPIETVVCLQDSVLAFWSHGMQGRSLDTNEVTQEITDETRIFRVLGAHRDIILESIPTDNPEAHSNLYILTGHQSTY
Chain of CLK4 (Q9HAZ1 whole entry): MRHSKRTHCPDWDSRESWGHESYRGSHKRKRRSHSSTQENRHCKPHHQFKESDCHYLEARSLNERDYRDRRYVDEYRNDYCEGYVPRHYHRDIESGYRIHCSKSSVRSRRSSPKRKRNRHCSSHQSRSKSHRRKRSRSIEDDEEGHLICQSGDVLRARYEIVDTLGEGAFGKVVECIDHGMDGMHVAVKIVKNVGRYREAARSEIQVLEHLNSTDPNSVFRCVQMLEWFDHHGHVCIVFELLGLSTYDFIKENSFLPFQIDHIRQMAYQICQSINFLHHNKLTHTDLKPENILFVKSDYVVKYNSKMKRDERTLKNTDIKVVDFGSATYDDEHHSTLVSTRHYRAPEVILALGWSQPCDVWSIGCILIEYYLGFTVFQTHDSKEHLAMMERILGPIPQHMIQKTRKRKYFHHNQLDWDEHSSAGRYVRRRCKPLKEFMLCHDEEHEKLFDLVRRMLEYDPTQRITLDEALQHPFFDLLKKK
T10 sequence (Q13043 whole entry): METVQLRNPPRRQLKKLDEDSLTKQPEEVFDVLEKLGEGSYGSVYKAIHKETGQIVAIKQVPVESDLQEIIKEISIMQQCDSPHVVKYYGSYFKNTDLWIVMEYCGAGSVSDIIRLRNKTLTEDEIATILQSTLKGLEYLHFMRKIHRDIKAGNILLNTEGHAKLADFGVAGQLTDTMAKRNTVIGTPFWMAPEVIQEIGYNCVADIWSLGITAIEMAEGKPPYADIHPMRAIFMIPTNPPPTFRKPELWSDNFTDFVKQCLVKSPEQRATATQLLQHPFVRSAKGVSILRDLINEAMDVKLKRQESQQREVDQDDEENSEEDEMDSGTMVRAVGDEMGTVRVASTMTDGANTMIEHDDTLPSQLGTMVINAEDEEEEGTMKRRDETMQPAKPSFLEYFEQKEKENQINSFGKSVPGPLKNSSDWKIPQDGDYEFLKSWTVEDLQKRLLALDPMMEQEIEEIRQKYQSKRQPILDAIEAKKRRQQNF
T13 sequence (P15735 whole entry): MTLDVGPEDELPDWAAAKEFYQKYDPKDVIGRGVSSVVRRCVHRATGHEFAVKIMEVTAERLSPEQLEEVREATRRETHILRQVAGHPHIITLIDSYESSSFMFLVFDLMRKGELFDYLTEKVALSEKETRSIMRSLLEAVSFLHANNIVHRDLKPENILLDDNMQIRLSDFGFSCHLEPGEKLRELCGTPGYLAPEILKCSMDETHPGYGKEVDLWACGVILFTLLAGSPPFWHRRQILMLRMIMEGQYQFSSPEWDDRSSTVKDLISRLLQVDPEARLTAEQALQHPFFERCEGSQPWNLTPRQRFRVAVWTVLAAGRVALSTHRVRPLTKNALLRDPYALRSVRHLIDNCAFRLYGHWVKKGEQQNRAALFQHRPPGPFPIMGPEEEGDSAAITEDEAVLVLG
T7 sequence (P21709 26-976): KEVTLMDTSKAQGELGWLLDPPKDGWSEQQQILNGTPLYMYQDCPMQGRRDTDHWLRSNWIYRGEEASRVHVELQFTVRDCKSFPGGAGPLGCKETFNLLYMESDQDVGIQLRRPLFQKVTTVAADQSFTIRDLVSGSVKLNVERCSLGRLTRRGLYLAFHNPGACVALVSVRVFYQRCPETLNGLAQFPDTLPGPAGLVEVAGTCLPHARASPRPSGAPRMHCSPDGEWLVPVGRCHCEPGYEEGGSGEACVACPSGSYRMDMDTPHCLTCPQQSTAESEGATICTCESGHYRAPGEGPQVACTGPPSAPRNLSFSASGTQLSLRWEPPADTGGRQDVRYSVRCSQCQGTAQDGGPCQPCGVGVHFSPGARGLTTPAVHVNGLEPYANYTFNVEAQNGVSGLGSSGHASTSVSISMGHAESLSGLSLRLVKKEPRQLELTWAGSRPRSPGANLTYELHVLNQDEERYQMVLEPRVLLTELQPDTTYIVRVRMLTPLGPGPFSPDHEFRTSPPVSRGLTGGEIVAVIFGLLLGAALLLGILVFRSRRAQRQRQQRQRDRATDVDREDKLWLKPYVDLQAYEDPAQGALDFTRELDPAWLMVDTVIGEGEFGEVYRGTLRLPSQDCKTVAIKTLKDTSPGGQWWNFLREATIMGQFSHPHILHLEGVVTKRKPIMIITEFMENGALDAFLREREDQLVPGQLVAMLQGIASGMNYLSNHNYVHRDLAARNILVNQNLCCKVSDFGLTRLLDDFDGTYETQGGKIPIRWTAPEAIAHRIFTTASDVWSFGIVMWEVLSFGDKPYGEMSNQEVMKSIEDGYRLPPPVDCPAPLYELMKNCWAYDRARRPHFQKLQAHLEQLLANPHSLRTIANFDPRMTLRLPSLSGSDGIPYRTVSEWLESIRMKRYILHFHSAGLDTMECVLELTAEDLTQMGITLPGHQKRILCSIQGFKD

With `O=C(c1ccc2[nH]nc(C#Cc3ccccc3-c3ccccc3)c2c1)N1CC2(CCCNC2)C1` [CDD-2807], the “histology of testes and epididymis” value with male mice (protocol 1) is recorded as “no detectable defects”. For the same compound, the histology of epididymis result in the series on male mice (protocol 2) was “round spermatids in the epididymis”. The receptor occupancy at 1 µM is 31.8 ± 1% at NTRK1; 45.2 ± 0.2% on PTK2B; 76.5 ± 0.2% at PTK2; 57.4 ± 0.1% on GAK; 30.3 ± 2.6% at FLT3; 32.4 ± 1.3% at CSNK1G2. The receptor occupancy at 1 µM on EPHA1 turned out to be 30.6 ± 2.4%; at PHKG1 it was 58.4 ± 2.9%; at MAP4K2, 40 ± 0.6%; at STK4, 30.3 ± 0.4%; at NTRK2, 44.5%; on AAK1, 56.4 ± 1.3%. Moreover, the receptor occupancy at 1 µM at PHKG2 stood at 59.2 ± 1.2%; at FER, 38 ± 1.2%; on BMP2K, 54.5 ± 0.3%. The compound further registered a Kd at CLK4 of 0.9 nM.
